# Source: patent US9907737B2, “Composition comprising ferulic acid ethyl ester and aryl alkanol” (L'AIR LIQUIDE, SOCIETE ANONYME POUR L'ETUDE ET …, priority 2013, dated 2018)
# Marks after values point to notes of the source that are not given here.
# Experiments:
# [1] = tested on: S. aureus ATCC: 6538; test: Bacterial count reduction test (method 1), S. aureus; assay type: cell-based, Staphylococcus aureus; settings: o/w cream, initial bacterial count 1 × 10^9
# Procedure: (§1) Method 1: Bacterial Count Reduction Test
# (§2) The aim of this bacterial count reduction test is to determine suitable preservatives and reaction times for samples injected in the laboratory.
# (§3) Staphylococcus aureus, Escherichia coli or Pseudomonas aeruginosa, Candida albicans, Aspergillus brasiliensis
# (§4) From a 24-hour CS-angular agar culture (I subculture) of Staphylococcus aureus/Escherichia coli 24-hour CSL-cultures (II subculture) are created. The incubation is carried out at 37° C. The titer of the bacterial suspension is about 10^9 CFU/ml.
# (§5) The titres of the respectively produced test organism suspensions are determined by means of a dilution series in physiological NaCl and recorded.
# (§6) The samples are displaced with different concentrations of suitable preservatives. For each test bacterium a dilution series is required. The samples are injected individually with the respective test organism suspension and stirred well:
# (§7) 25 g samples=0.1 ml bacterial suspension
# (§8) 50 g samples=0.2 ml bacterial suspension.
# (§9) After the indicated reaction times the samples are firstly stirred homogenously with a sterile glass rod and then spread onto CSA or SA agar. The bacteria samples are spread onto CSA and incubated for 48 hours at 37° C. The mould and yeast samples are spread onto SA agar and incubated for 48 hours at 37° C. (Candida albicans) and at 25° C. (Aspergillus brasiliensis).
# [2] = tested on: E. coli ATCC: 11229; test: Bacterial count reduction test (method 1), E. coli; assay type: cell-based, Escherichia coli; settings: o/w cream, initial bacterial count 1.3 × 10^9
# Procedure: as §1, §2, §3, §4, §5, §6, §7, §8, §9
# [3] = tested on: A. brasiliensis ATCC: 16404; test: Bacterial count reduction test (method 1), A. brasiliensis; assay type: cell-based, Aspergillus brasiliensis
# Procedure: as §1, §2, §3
# A 7 to 14 days old Aspergillus brasiliensis culture on SA agar (25° C.±1° C.) is washed with 5 ml physiological NaCl, filtered by a glass funnel with glass wool and filled with physiological NaCl to 100 ml. The titre of the Aspergillus brasiliensis suspension is about 10^7 CFU/ml.
# as §5, §6, §7, §8, §9
# [4] = tested on: Staphylococcus aureus, Escherichia coli or Pseudomonas aeruginosa, Candida albicans, Aspergillus brasiliensis; test: Bacterial count reduction test (method 1), summary in words over the test organisms; assay type: cell-based; settings: Example 3, Table 4; o/w-Lotion; concentration of 2%
# Procedure: as §1, §2, §3, §6, §9
# [5] = tested on: C. albicans ATCC: 10231; test: Bacterial count reduction test (method 1), C. albicans; assay type: cell-based, Candida albicans
# Procedure: as §1, §2, §3
# A 4 day old Candida albicans culture on SA-agar (II subculture) is washed with 5 ml physiological NaCl and adjusted according to a barium sulphate standard (cf. DVG Guidelines). The titer of the Candida albicans suspension is 10^8 CFU/ml.
# as §5, §6, §7, §8, §9
# [6] = o/w cream, initial bacterial count 1.5 × 10^7
# [7] = o/w-Lotion, initial bacterial count 7.7 × 10^7
# [8] = o/w cream, initial bacterial count 4.1 × 10^8
# [9] = o/w-Lotion, initial bacterial count 5.4 × 10^8
smiles,measurement,setting,value
"COc1cc(/C=C/C(=O)O)ccc1O [0.1% ferulic acid, ferulic acid]",Growth of S. aureus ATCC: 6538 after 24 hours,[1]; 24 h,R (Surface covered About 10^6)
same,Growth of S. aureus ATCC: 6538 after 72 hours,[1]; 72 h,++++ (Massive growth About 10^5)
same,Growth of S. aureus ATCC: 6538 after 168 hours,[1]; 168 h,++++ (Massive growth About 10^5)
same,Growth of S. aureus ATCC: 6538 after 336 hours,[1]; 336 h,++++ (Massive growth About 10^5)
same,Growth of E. coli ATCC: 11229 after 24 hours,[2]; 24 h,++++ (Massive growth About 10^5)
same,Growth of E. coli ATCC: 11229 after 72 hours,[2]; 72 h,R (Surface covered About 10^6)
same,Growth of E. coli ATCC: 11229 after 168 hours,[2]; 168 h,R (Surface covered About 10^6)
same,Growth of E. coli ATCC: 11229 after 336 hours,[2]; 336 h,R (Surface covered About 10^6)
same,Growth of A. brasiliensis ATCC: 16404 after 24 hours,[3]; [6],++++ (Massive growth About 10^5)
same,Growth of A. brasiliensis ATCC: 16404 after 72 hours,[3]; [6],++++ (Massive growth About 10^5)
same,Growth of A. brasiliensis ATCC: 16404 after 168 hours,[3]; [6],++++ (Massive growth About 10^5)
same,Growth of A. brasiliensis ATCC: 16404 after 336 hours,[3]; [6],++++ (Massive growth About 10^5)
same,Growth of A. brasiliensis ATCC: 16404 after 24 hours,[3]; [7],++++ (Massive growth About 10^5)
same,Growth of A. brasiliensis ATCC: 16404 after 72 hours,[3]; [7],++++ (Massive growth About 10^5)
same,Growth of A. brasiliensis ATCC: 16404 after 168 hours,[3]; [7],++++ (Massive growth About 10^5)
same,Growth of A. brasiliensis ATCC: 16404 after 336 hours,[3]; [7],++++ (Massive growth About 10^5)
same,"Effectiveness in bacterial count reduction test, in words",[4],inherent effectiveness
same,Growth of C. albicans ATCC: 10231 after 24 hours,[5]; [8],R (Surface covered About 10^6)
same,Growth of C. albicans ATCC: 10231 after 72 hours,[5]; [8],R (Surface covered About 10^6)
same,Growth of C. albicans ATCC: 10231 after 168 hours,[5]; [8],++++ (Massive growth About 10^5)
same,Growth of C. albicans ATCC: 10231 after 336 hours,[5]; [8],++++ (Massive growth About 10^5)
same,Growth of C. albicans ATCC: 10231 after 24 hours,[5]; [9],R (Surface covered About 10^6)
same,Growth of C. albicans ATCC: 10231 after 72 hours,[5]; [9],R (Surface covered About 10^6)
same,Growth of C. albicans ATCC: 10231 after 168 hours,[5]; [9],++++ (Massive growth About 10^5)
same,Growth of C. albicans ATCC: 10231 after 336 hours,[5]; [9],++++ (Massive growth About 10^5)
